According to US8163756B2 (priority 2004, dated 2012):

Legend:
Assay type in all cases: biochemical
Abl kinase [1] = molecular target: T1, Abl kinase (Homo sapiens, UniProt P00519); test: Abl kinase assay A2 (as A1, 1.1 nM enzyme, 2 h pre-incubation, 0.5 mM ATP)
T1 sequence (P00519 229-512): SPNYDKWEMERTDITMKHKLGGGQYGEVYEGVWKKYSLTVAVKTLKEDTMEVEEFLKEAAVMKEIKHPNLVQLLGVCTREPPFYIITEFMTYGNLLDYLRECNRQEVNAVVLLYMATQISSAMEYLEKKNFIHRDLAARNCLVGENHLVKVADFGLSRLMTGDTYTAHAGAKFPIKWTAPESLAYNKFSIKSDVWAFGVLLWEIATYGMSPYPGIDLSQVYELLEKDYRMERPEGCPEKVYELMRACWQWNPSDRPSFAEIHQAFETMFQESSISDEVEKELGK
Method: (§1) IC50 values were calculated from a series of percent inhibition values determined at a range of inhibitor concentrations using software routines as implemented in the GraphPad Prism software package.

KDR kinase [2] = molecular target: T2, KDR kinase (Homo sapiens, UniProt P35968, DEL940-989/E990V); test: KDR kinase assay K2 (as K1, 2.1 nM enzyme, 2 h pre-incubation, 1.0 mM ATP); details: Method K2; read-out: KDR Data (IC50)
Method: as §1

[3] = molecular target: phosphorylated p-38-alpha kinase (Homo sapiens, UniProt Q16539); test: P-38 alpha kinase assay P1 (coupled spectrophotometric, 2 h pre-incubation); details: method P1 (2 h pre-incubation); read-out: P-38 Data
Abl kinase [4] = molecular target: T1, Abl kinase; test: Abl kinase assay A1 (pyruvate kinase/lactate dehydrogenase coupled, spectrophotometric); details: Method A1; read-out: Abl Data (IC50)
Method: as §1

KDR kinase [5] = molecular target: T2, KDR kinase; test: KDR kinase assay K1 (pyruvate kinase/lactate dehydrogenase coupled, spectrophotometric); details: Method K1; read-out: KDR Data (IC50)
Method: as §1

B-Raf(V599E) kinase [6] = molecular target: T3, B-Raf(V599E) kinase (Homo sapiens, UniProt P15056, V600E); test: B-Raf(V599E) kinase assay B2 (construct 2 at 2 nM, 1 h pre-incubation)
Method: (§2) The test compounds were incubated with the reaction mixtureat 30° C. for 2 h. […] The reaction rate was calculated using the […] time frame. […] IC50 values were calculated from a series of percent inhibition values determined at a range of inhibitor concentrations using software routines as implemented in the GraphPad Prism software package.
Same as assay B1 except that (1) construct 2 was employed at a nominal concentration of 2 nM (2) the reaction was pre-incubated at 30° C. for 1 h prior to initiation with ATP (3) a reading time frame of 0.5 h to 1.5 h.
Target sequence in this assay (P15056 433-726 V600E): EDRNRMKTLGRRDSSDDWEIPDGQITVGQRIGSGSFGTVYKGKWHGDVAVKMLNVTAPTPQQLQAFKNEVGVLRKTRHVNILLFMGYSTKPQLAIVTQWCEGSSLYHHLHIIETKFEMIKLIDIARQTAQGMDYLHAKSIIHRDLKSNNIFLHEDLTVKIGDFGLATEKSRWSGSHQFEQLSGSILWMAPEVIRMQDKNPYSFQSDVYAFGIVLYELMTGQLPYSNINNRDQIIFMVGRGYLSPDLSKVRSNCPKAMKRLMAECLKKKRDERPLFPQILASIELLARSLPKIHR

B-Raf(V599E) kinase [7] = molecular target: T3, B-Raf(V599E) kinase; test: B-Raf(V599E) kinase assay B1 (construct 1, MEK1 substrate, coupled spectrophotometric)
Method: as §2
Target sequence in this assay (P15056 with tags, fused parts or gaps V600E): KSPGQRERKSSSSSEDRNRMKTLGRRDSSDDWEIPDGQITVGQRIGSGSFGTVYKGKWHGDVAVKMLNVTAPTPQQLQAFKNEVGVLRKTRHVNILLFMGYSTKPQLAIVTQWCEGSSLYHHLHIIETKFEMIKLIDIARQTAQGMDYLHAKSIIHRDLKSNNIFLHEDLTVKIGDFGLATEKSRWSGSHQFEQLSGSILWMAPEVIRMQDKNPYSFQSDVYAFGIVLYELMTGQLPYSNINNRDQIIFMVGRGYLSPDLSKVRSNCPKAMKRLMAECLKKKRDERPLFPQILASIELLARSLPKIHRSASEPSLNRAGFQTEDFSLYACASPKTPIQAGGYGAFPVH

[8] = Method A2, read-out: Abl Data (IC50)

Chain of phosphorylated p-38-alpha kinase (Q16539 1-360 isoform Q16539-2): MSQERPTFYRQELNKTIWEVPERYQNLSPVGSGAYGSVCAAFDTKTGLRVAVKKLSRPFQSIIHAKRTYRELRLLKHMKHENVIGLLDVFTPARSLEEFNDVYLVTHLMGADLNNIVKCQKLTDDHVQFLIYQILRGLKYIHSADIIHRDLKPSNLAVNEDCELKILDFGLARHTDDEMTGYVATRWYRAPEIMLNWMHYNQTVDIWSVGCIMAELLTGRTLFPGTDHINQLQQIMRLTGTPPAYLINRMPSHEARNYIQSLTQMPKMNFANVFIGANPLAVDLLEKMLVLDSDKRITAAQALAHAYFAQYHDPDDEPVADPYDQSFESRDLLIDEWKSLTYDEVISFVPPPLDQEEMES
T2 sequence (P35968 with tags, fused parts or gaps DEL940-989/E990V): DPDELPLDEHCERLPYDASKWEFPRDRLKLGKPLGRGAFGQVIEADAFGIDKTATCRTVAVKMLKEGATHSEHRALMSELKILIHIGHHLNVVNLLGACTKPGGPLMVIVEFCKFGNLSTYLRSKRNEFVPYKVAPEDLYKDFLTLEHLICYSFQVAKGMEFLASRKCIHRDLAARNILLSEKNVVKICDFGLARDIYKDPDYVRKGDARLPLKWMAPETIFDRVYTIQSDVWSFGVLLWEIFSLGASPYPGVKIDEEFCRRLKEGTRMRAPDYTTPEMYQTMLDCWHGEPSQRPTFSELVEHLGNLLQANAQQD

NC(=O)Cc1cccc(-c2ccc(C(F)(F)F)cc2NC(=O)Nc2ccc(-c3cccc4c3CNC4=O)cc2)c1 [Example 33, [1,1′-biphenyl]-2′-(3-(4-(1-oxoisoindolin-4-yl)phenyl)ureido)-4′-(trifluoromethyl)-3-acetic acid amide]
IC50 (Abl kinase [1]; [8]): 250 nM
IC50 (KDR kinase [2]): 14 nM
IC50 [3]: 300 nM

CC(C)(C)c1cc(NC(=O)Nc2cccc(Cl)c2Cl)n(-c2cccc(-c3cn[nH]c3)c2)n1 [Example 50, 1-(1-(3-(1H-pyrazol-4-yl)phenyl)-3-t-butyl-1H-pyrazol-5-yl)-3-(2,3-dichlorophenyl)urea]
IC50 (Abl kinase [4]): 380 nM
IC50 (KDR kinase [5]): 52 nM
IC50 (B-Raf(V599E) kinase [6]): 168 nM
IC50 [3]: 29 nM

CC(C)(C)c1cc(NC(=O)Nc2ccc(-c3cccc4c3CNC4=O)cc2)n(-c2cccc(-c3cn[nH]c3)c2)n1 [Example 51, 1-(1-(3-(1H-pyrazol-4-yl)phenyl)-3-t-butyl-1H-pyrazol-5-yl)-3-(4-(1-oxoisoindolin-4-yl)phenyl)urea]
IC50 (Abl kinase [1]; [8]): 52 nM
IC50 (B-Raf(V599E) kinase [6]): 29 nM

CC(C)(C)c1cc(NC(=O)Nc2cccc(Oc3cccnc3)c2)n(-c2ccc3ncccc3c2)n1 [Example 55, 1-(3-t-butyl-1-(quinolin-6-yl)-1H-pyrazol-5-yl)-3-(3-(pyridin-3-yloxy)phenyl)urea]
IC50 (Abl kinase [1]; [8]): 3.5 nM
IC50 (KDR kinase [2]): 4 nM
IC50 (B-Raf(V599E) kinase [7]): 5.4 nM
IC50 [3]: 130 nM

CC(C)(C)c1cc(NC(=O)Nc2cccc(Oc3cccnc3)c2)n(-c2cc(CN)c3ccccc3c2)n1 [Example 72, 1-(1-(4-(aminomethyl)naphthalen-2-yl)-3-t-butyl-1H-pyrazol-5-yl)-3-(3-(pyridin-3-yloxy)phenyl)urea]
IC50 (Abl kinase [1]; [8]): 2 nM
IC50 (KDR kinase [2]): 8.5 nM
IC50 (B-Raf(V599E) kinase [7]): 4.4 nM

CC(C)(C)c1cc(NC(=O)Nc2ccc(Cl)cc2)n(-c2cc(CNC(=O)NS(C)(=O)=O)c3ccccc3c2)n1 [Example 74, 1-{3-t-butyl-1-[1-(methanesulfonylureidoamidomethyl)naphthalen-3-yl]-1H-pyrazol-5-yl}-3-(4-chlorophenyl-1-yl)urea]
IC50 (Abl kinase [4]): 2100 nM
IC50 (KDR kinase [2]): 2500 nM
IC50 (B-Raf(V599E) kinase [6]): 934 nM

CC(C)(C)c1cc(NC(=O)Nc2cc(F)cc(F)c2F)n(-c2cc(CC(N)=O)c3ccccc3c2)n1 [Example 85, 1-(1-(4-(2-amino-2-oxoethyl)naphthalen-2-yl)-3-t-butyl-1H-pyrazol-5-yl)-3-(2,3,5-trifluorophenyl)urea]
IC50 (Abl kinase [4]): 33 nM
IC50 (B-Raf(V599E) kinase [6]): 219 nM

CC(C)(C)c1cc(NC(=O)Nc2ccc(F)c(F)c2F)n(-c2cc(CC(=O)NCC(O)CO)c3ccccc3c2)n1 (stereo not drawn) [Example 96, 1-(3-t-butyl-1-(4-(2-(2,3-dihydroxypropyl-amino)-2-oxoethyl)naphthalen-2-yl)-1H-pyrazol-5-yl)-3-(2,3,4-trifluorophenyl)urea]
IC50 (Abl kinase [4]): 100 nM
IC50 (B-Raf(V599E) kinase [6]): 378 nM
IC50 [3]: 48 nM

CC(C)(C)c1cc(NC(=O)Nc2cccc(Cl)c2Cl)n(-c2ccc3[nH]ccc3c2)n1 [Example 115, 1-(3-t-butyl-1-(1H-indol-5-yl)-1H-pyrazol-5-yl)-3-(2,3-dichlorophenyl)urea]
IC50 (Abl kinase [4]): 170 nM
IC50 (KDR kinase [2]): 810 nM
IC50 (B-Raf(V599E) kinase [6]): 979 nM
IC50 [3]: 490 nM

CC(C)(C)c1cc(NC(=O)Nc2cccc(Oc3cccnc3)c2)n(-c2ccc3[nH]ccc3c2)n1 [Example 116, 1-(3-t-butyl-1-(1H-indol-5-yl)-1H-pyrazol-5-yl)-3-(3-(pyridin-3-yloxy)phenyl)urea]
IC50 (Abl kinase [1]; [8]): 6.6 nM
IC50 (KDR kinase [2]): 5 nM
IC50 (B-Raf(V599E) kinase [7]): 5.9 nM

CC(C)(C)c1cc(NC(=O)Nc2cccc(Oc3cccnc3)c2)n(-c2ccc3c(c2)CCNC3)n1 [Example 141, 1-(3-t-butyl-1-(1,2,3,4-tetrahydro-isoquinolin-6-yl)-1H-pyrazol-5-yl)-3-(3-(pyridin-3-yloxy)phenyl)urea]
IC50 (Abl kinase [1]): 1.5 nM
IC50 (KDR kinase [2]): 8.5 nM
IC50 (B-Raf(V599E) kinase [7]): 7.5 nM
IC50 [3]: 730 nM

CC(C)(C)c1cc(NC(=O)Nc2cccc(Oc3cccnc3)c2)n(-c2ccc3[nH]c(=O)ccc3c2)n1 [Example 156, 1-(3-t-butyl-1-(2-oxo-1,2-dihydroquinolin-6-yl)-1H-pyrazol-5-yl)-3-(3-(pyridin-3-yloxy)phenyl)urea]
IC50 (Abl kinase [1]; [8]): 5 nM
IC50 (KDR kinase [2]): 3.2 nM
IC50 (B-Raf(V599E) kinase [7]): 4.1 nM

CC(C)(C)c1cc(NC(=O)Nc2cccc(Oc3cccnc3)c2)n(-c2ccc3c(c2)CC(C(N)=O)NC3)n1 (stereo not drawn) [Example 179, 1-(3-t-butyl-1-(3-carbamoyl-1,2,3,4-tetrahydroisoquinolin-6-yl)-1H-pyrazol-5-yl)-3-(3-(pyridin-3-yloxy)phenyl)urea]
IC50 (Abl kinase [1]; [8]): 3 nM
IC50 (KDR kinase [2]): 6.4 nM
IC50 (B-Raf(V599E) kinase [7]): 17 nM
IC50 [3]: 96 nM

CNC(=O)C1NCCc2cc(-n3nc(C(C)(C)C)cc3NC(=O)Nc3cccc(Oc4cccnc4)c3)ccc21 (stereo not drawn) [Example 180, 1-(3-t-butyl-1-(1-(methylcarbamoyl)-1,2,3,4-tetrahydroisoquinolin-6-yl)-1H-pyrazol-5-yl)-3-(3-(pyridin-3-yloxy)phenyl)urea]
IC50 (Abl kinase [1]; [8]): 9 nM
IC50 (KDR kinase [2]): 7.8 nM
IC50 (B-Raf(V599E) kinase [7]): 11 nM
IC50 [3]: 65 nM

CNC(=O)C1Cc2cc(-n3nc(C(C)(C)C)cc3NC(=O)Nc3cccc(Oc4cccnc4)c3)ccc2CN1 (stereo not drawn) [Example 190, 1-(3-t-butyl-1-(3-(methylcarbamoyl)-1,2,3,4-tetrahydroisoquinolin-6-yl)-1H-pyrazol-5-yl)-3-(3-(pyridin-3-yloxy)phenyl)urea]
IC50 (Abl kinase [1]; [8]): 4 nM
IC50 (KDR kinase [2]): 8.1 nM
IC50 [3]: 78 nM

COc1cccc(-n2nc(C(C)(C)C)cc2NC(=O)Nc2ccccc2F)c1 [Example 235, 1-[3-t-butyl-1-(3-methoxy-phenyl)-1H-pyrazol-5-yl]-3-(2-fluorophenyl)urea]
IC50 (KDR kinase [2]): 3500 nM
IC50 (B-Raf(V599E) kinase [6]): 1040 nM
IC50 [3]: 120 nM

COc1cccc(-n2nc(C(C)(C)C)cc2NC(=O)Nc2cccc(F)c2F)c1 [Example 236, 1-[3-t-butyl-1-(3-methoxy-phenyl)-1H-pyrazol-5-yl]-3-(2,3-difluorophenyl)urea]
IC50 (KDR kinase [2]): 3500 nM
IC50 (B-Raf(V599E) kinase [6]): 2050 nM
IC50 [3]: 250 nM

CC(C)(C)c1cc(NC(=O)Nc2cc(F)c(F)cc2F)n(-c2cccc(-c3cccnc3)c2)n1 [Example 275, 1-(3-t-butyl-1-(3-(pyridin-3-yl)phenyl)-1H-pyrazol-5-yl)-3-(2,4,5-trifluorophenyl)urea]
IC50 (B-Raf(V599E) kinase [6]): 832 nM

CC(C)(C)c1cc(NC(=O)Nc2cccc(Oc3cccnc3)c2)n(-c2cccc(-c3cccnc3)c2)n1 [Example 277, 1-(3-t-butyl-1-(3-(pyridin-3-yl)phenyl)-1H-pyrazol-5-yl)-3-(3-(pyridin-3-yloxy)phenyl)urea]
IC50 (Abl kinase [1]; [8]): 29 nM
IC50 (KDR kinase [2]): 10 nM
IC50 (B-Raf(V599E) kinase [7]): 11 nM
IC50 [3]: 180 nM

CC(C)(C)c1cc(NC(=O)Nc2cccc(Cl)c2Cl)n(-c2cccc(-c3n[nH]c(=O)o3)c2)n1 [Example 278, 1-(3-t-butyl-1-(3-(5-oxo-4,5-dihydro-1,3,4-oxadiazol-2-yl)phenyl)-1H-pyrazol-5-yl)-3-(2,3-dichlorophenyl)urea]
IC50 (B-Raf(V599E) kinase [6]): 153 nM

NC(=O)C1CCc2ccc(-n3nc(C4CCCC4)cc3NC(=O)Nc3cccc(Cl)c3Cl)cc21 (stereo not drawn) [Example 305, 1-(1-(3-carbamoyl-2,3-dihydro-1H-inden-5-yl)-3-cyclopentyl-1H-pyrazol-5-yl)-3-(2,3-dichlorophenyl)urea]
IC50 (B-Raf(V599E) kinase [6]): 788 nM
IC50 [3]: 19 nM
